Starred links: 1 amine or outer side, 2 acyl side, 3 side chain; linkers in the order of their positions; H or OH if unused. Non-standard residues stand in square brackets, D forms with d. Residues, ends and D or L forms follow the SMILES beside them. Groups on a side chain read outwards from the residue. *: point of attachment. C20 diacid = O=C(O)CCCCCCCCCCCCCCCCCCC(=O)*; αMePhe(2-F) = C[C@](N)(Cc1ccccc1F)C(=O)O; γGlu = O=C(O)[C@H](CCC(=O)[*:2])N[*:1]; αMeL = CC(C)C[C@](C)(N)C(=O)O; AEEA = NCCOCCOCC(=O)O; Aib = CC(C)(N)C(=O)O
Columns and labels:
Human GLP-1R = Human GLP-1R (Homo sapiens, UniProt P43220); assay: cAMP (HTRF) activity in HEK-293 cells stably overexpressing human GLP-1 receptor; type: cell-based; parameters: expressed in transfected cells; host or cells: HEK-293; details: for Human GLP-1R Rel. A (Relative Activity): EC50 of human GLP-1 (7-37) / EC50 of compound; for EC50: stable transfected cell cAMP activity, at least 3 independent tests
In short: (§1)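 Cells in HBSS are exposed to compound for 60 min at room temperature, followed by 60 min with detection reagent. EC50 (nM) is taken from concentration-response curves.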

RIN-m5F cells = type: cell-based, rat; details: for Rel. A (Relative Activity) on RIN-m5F: relative to GLP-1(7-37)
In short: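 After 60 min room-temperature exposure of HBSS-suspended RIN-m5F cells to compound and another 60 min with detection reagent, cellular cAMP level was determined.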

C57 BL/6J DIO mice = assay: In vivo pharmacodynamics in high-fat diet induced obesity (DIO) mice; parameters: species or system mouse; details: Mean±SEM; for LDL-C / TC (total cholesterol) / TG (plasma triglycerides) / Blood sugar (fasting blood glucose) / Insulin (blood): Day 15
In short: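 DIO mice (60 kcal% fat diet) dosed subcutaneously in 1×PBS, 5 ml/kg, every three days for 15 days. Daily body weight and food intake as % change from baseline; day 15 fasting glucose, plasma TC, LDL-C, TG, insulin and liver TG. Mean±SEM, one-way ANOVA with Dunnett's versus vehicle.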

Human GCG R = target: T1, Human GCG R (Homo sapiens, UniProt P47871); assay: cAMP (HTRF) activity in HEK-293 cells stably overexpressing human GCG receptor; type: cell-based; details: EC50 of human GCG / EC50 of compound
T1 construct: expressed in transfected cells; host or cells: HEK-293
In short: as §1

Chain of Human GLP-1R (P43220 24-463): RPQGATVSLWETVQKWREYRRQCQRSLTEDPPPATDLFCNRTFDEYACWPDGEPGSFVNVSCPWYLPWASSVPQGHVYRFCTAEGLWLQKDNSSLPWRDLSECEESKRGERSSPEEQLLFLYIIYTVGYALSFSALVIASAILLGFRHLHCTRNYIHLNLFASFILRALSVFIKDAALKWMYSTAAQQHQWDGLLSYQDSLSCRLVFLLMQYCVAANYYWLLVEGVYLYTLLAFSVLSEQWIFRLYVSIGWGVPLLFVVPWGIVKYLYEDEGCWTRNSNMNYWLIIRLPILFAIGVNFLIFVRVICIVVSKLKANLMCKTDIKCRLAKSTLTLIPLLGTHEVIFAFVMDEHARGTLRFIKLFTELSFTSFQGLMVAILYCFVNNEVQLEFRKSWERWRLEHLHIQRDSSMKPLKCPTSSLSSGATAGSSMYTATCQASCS
T1 sequence (P47871 26-477): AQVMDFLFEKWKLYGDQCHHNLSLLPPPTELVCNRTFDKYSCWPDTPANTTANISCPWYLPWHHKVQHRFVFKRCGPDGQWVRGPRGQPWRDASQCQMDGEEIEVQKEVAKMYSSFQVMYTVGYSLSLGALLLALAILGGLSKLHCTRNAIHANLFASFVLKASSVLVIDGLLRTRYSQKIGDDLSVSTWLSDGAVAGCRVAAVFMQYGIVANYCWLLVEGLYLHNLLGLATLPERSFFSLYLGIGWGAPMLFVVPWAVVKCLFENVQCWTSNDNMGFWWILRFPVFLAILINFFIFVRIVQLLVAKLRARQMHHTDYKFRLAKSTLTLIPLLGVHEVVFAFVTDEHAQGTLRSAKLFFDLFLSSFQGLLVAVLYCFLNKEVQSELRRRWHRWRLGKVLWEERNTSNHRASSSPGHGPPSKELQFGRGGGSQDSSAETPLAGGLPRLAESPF

## CC[C@H](C)[C@H](NC(=O)[C@H](Cc1ccccc1)NC(=O)[C@H](C)NC(=O)C(C)(C)NC(=O)[C@H](CCC(N)=O)NC(=O)[C@H](C)NC(=O)[C@H](CCCCNC(=O)COCCOCCNC(=O)COCCOCCNC(=O)CC[C@H](NC(=O)CCCCCCCCCCCCCCCCCCC(=O)O)C(=O)O)NC(=O)[C@H](CCCCN)NC(=O)[C@H](CC(=O)O)NC(=O)[C@H](CC(C)C)NC(=O)[C@H](Cc1ccccc1)NC(=O)[C@@H](NC(=O)[C@H](CO)NC(=O)[C@H](Cc1ccc(O)cc1)NC(=O)[C@H](CC(=O)O)NC(=O)[C@H](CO)NC(=O)[C@@H](NC(=O)[C@](C)(Cc1ccccc1F)NC(=O)[C@@H](NC(=O)CNC(=O)[C@H](CCC(N)=O)NC(=O)C(C)(C)NC(=O)[C@@H](N)Cc1ccc(O)cc1)[C@@H](C)O)[C@@H](C)O)[C@@H](C)CC)C(=O)N[C@@H](CCC(=O)O)C(=O)N[C@@H](Cc1ccc(O)cc1)C(=O)N[C@@H](CC(C)C)C(=O)N[C@@H](CC(C)C)C(=O)N[C@@H](CCC(=O)O)C(=O)NC(C)(C)C(=O)N[C@@H](Cc1c[nH]cn1)C(=O)N1CCC[C@H]1C(=O)N[C@@H](CO)C(=O)N[C@@H](CO)C(=O)NCC(=O)N[C@@H](C)C(=O)N1CCC[C@H]1C(=O)N1CCC[C@H]1C(=O)N1CCC[C@H]1C(=O)N[C@@H](CO)C(N)=O [Compound 18]
Human GLP-1R
  Human GLP-1R Rel. A (Relative Activity): 366.67%
  EC50: 0.012 nM
RIN-m5F cells
  EC50: 0.214 nM
  Rel. A (Relative Activity) on RIN-m5F: 482.24%
C57 BL/6J DIO mice; Table 6-1, 3 nmol/kg s.c. Q3D for 15 days
  Weight change: −22.2 ± 0.89%
C57 BL/6J DIO mice; Table 6-1, 10 nmol/kg s.c. Q3D for 15 days
  Weight change: −30.6 ± 1.26%
C57 BL/6J DIO mice; Table 6-1, 30 nmol/kg s.c. Q3D for 15 days
  Weight change: −45.0 ± 1.52%
C57 BL/6J DIO mice; Table 7-1, 3 nmol/kg
  LDL-C: 0.60 ± 0.043 mM
  TC (total cholesterol): 3.77 ± 0.234 mM
  TG (plasma triglycerides): 0.90 ± 0.027 mM
C57 BL/6J DIO mice; Table 7-1, 30 nmol/kg
  LDL-C: 0.35 ± 0.036 mM
  TC (total cholesterol): 2.32 ± 0.161 mM
  TG (plasma triglycerides): 0.61 ± 0.041 mM
C57 BL/6J DIO mice; Table 8-1, 3 nmol/kg
  Blood sugar (fasting blood glucose): 98.5 ± 9.17 mg/dL
  Insulin (blood): 21.2 ± 3.73 mIU/L

## CC[C@H](C)[C@H](NC(=O)[C@H](Cc1ccccc1)NC(=O)[C@H](C)NC(=O)C(C)(C)NC(=O)[C@H](CCC(N)=O)NC(=O)[C@H](C)NC(=O)[C@H](CCCCNC(=O)COCCOCCNC(=O)COCCOCCNC(=O)CC[C@H](NC(=O)CCCCCCCCCCCCCCCCCCC(=O)O)C(=O)O)NC(=O)[C@H](CCCCN)NC(=O)[C@H](CC(=O)O)NC(=O)[C@H](CC(C)C)NC(=O)[C@](C)(CC(C)C)NC(=O)[C@@H](NC(=O)[C@H](CO)NC(=O)[C@H](Cc1ccc(O)cc1)NC(=O)[C@H](CC(=O)O)NC(=O)[C@H](CO)NC(=O)[C@@H](NC(=O)[C@](C)(Cc1ccccc1F)NC(=O)[C@@H](NC(=O)CNC(=O)[C@H](CCC(N)=O)NC(=O)C(C)(C)NC(=O)[C@@H](N)Cc1ccc(O)cc1)[C@@H](C)O)[C@@H](C)O)[C@@H](C)CC)C(=O)N[C@@H](CCC(=O)O)C(=O)N[C@@H](Cc1ccccc1)C(=O)N[C@@H](CC(C)C)C(=O)N[C@@H](CC(C)C)C(=O)N[C@@H](CCC(=O)O)C(=O)N[C@H](C(=O)NCC(=O)N1CCC[C@H]1C(=O)N[C@@H](CO)C(=O)N[C@@H](CO)C(=O)NC(C)(C)C(=O)N[C@@H](Cc1c[nH]cn1)C(=O)N1CCC[C@H]1C(=O)N1CCC[C@H]1C(=O)N1CCC[C@H]1C(=O)N[C@@H](CO)C(N)=O)[C@@H](C)O [Compound 38] (H-Y[Aib]QGT[αMePhe(2-F)]TSDYSI[αMeL]LDKK([AEEA-AEEA-γGlu-C20 diacid])AQ[Aib]AFIEFLLETGPSS[Aib]HPPPS-NH2; N-terminus assumed)
Human GLP-1R
  Human GLP-1R Rel. A (Relative Activity): 115.79%
  EC50: 0.038 nM
RIN-m5F cells
  EC50: 0.173 nM
  Rel. A (Relative Activity) on RIN-m5F: 596.53%
Human GCG R
  Human GCG R Rel. A (Relative Activity): 83.82%
C57 BL/6J DIO mice; Table 6-2, 3 nmol/kg s.c. Q3D for 15 days
  Weight change: −19.0 ± 1.30%
C57 BL/6J DIO mice; Table 6-2, 10 nmol/kg s.c. Q3D for 15 days
  Weight change: −25.7 ± 2.26%
C57 BL/6J DIO mice; Table 7-2, 3 nmol/kg
  LDL-C: 0.39 ± 0.025 mM
  TC (total cholesterol): 3.49 ± 0.151 mM
  TG (plasma triglycerides): 0.74 ± 0.019 mM
C57 BL/6J DIO mice; Table 7-2, 10 nmol/kg
  LDL-C: 0.35 ± 0.053 mM
  TC (total cholesterol): 3.12 ± 0.186 mM
  TG (plasma triglycerides): 0.63 ± 0.051 mM
C57 BL/6J DIO mice; Table 8-2, 3 nmol/kg
  Blood sugar (fasting blood glucose): 151.7 ± 8.46 mg/dL
  Insulin (blood): 24.9 ± 5.43 mIU/L
